In one series the target is T1, Recombinant human p38α (Homo sapiens, UniProt Q16539).
T1 construct: GST; made in house
As to the kind of experiment: Fluorescence anisotropy kinase binding assay (standard or low volume). Conditions: for active in the assay (pIC50, p38α binding): 12 nM p38α, 5 nM fluorescent ligand; call rule not given here. In short, it runs like this:
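Activated GST-tagged recombinant human p38α (pre-activated with MBP-MKK6 DD) at 12 nM final with 5 nM rhodamine green-labelled pyridinylimidazole tracer in pH 7.5 HEPES/CHAPS/DTT/MgCl2 buffer. Test compound 0.28 nM–16.6 μM or 0.02 nM–25 μM final, 3% or 1.7% DMSO; 30–60 min at room temperature. Fluorescence anisotropy read (ex 485/em 535 nm) for Ki.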
For orientation: Polarisation of emitted light reports the rotation of a fluorescent probe.

For series [1], the system named is IL-8 production by human neutrophils. As to the kind of experiment: TNF-stimulated IL-8 production from human neutrophils. The series is classed as cell-based. Conditions: Neutrophil, bound, not more than 50% inhibition at 100 nM, read-out: IC50.
For the next series, the system named is TNFalpha. As to the kind of experiment: LPS-stimulated cytokine production in human whole blood. The format is cell-based.
The subject of series [2] is influx of neutrophils to the lung in LPS-challenged rats. The series is described as follows: Rat LPS neutrophilia model. The series is classed as in vivo. Conditions: LPS aerosol, lavage 4 hours later, in at least one of the range of conditions tested, significance p<0.05. In short, it runs like this:
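Rats pretreated 15 min–24 h with compound or vehicle, given intratracheally (200 ul, isoflurane anaesthesia) as suspension in various vehicles, then exposed to LPS aerosol (100 ug/ml) 15 min. BAL 4 h later; Diffquick-stained differential counts give % inhibition of neutrophils versus no-compound controls at a set concentration and pretreatment time.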

[3] abbreviates: LPS-stimulated TNF-alpha, bound, read-out: IC50.
[4] abbreviates: bound, read-out: apparent pIC50 (converted).

This note sets out measurements from US20090239846A1, “Novel Compounds” (Glaxo Group Limited, priority 2005, published 2009).

Structures can show the parent of a compound that is named as a salt. Where two headings read alike, the source gives them in different places. Bounds are passed on as bounds.

T1 sequence (Q16539 whole entry): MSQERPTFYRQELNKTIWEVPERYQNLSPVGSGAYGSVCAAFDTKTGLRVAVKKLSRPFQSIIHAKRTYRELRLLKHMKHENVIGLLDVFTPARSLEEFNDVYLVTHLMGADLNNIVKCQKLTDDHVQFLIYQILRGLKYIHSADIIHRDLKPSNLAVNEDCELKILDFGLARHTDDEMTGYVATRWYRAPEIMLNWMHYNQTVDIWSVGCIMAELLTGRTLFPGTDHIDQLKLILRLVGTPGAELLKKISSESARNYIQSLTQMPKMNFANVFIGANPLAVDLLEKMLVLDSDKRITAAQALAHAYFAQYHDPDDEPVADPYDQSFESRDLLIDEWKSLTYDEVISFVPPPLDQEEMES
Procedure for TNFalpha: Assay: Test compound concentrations were prepared at 10× concentrations and LPS prepared at 1 ug/ml (final conc. of 50 ng/ml LPS) and added in 50 uL volumes to 1.5 mL eppendorf tubes. Heparinized human whole blood was obtained from healthy volunteers and was dispensed into eppendorf tubes or multiwell plates containing compounds and LPS in 0.2-0.4 mL volumes and the tubes incubated at 37 C. In some studies, compound was incubated with blood for up to 30 min prior to addition of LPS. Following a 4 hour incubation, the tubes or plates were centrifuged to remove cells and plasma was withdrawn and frozen at −80 C. Cytokine measurement: IL-1beta and/or TNFalpha were quantified using a standardized ELISA, or similar technology. Concentrations of IL-1beta or TNFalpha were determined from standard curves of the appropriate cytokine and IC50 values for test compound (concentration that inhibited 50% of LPS-stimulated cytokine production) were calculated by linear regression analysis.

Broadly, the melting point is the temperature of the solid-liquid transition. Consider `Cc1ccc(C(=O)N(C)C)cc1-c1nc(N2CCN(C)CC2)nc2c1CNC(=O)N2c1c(F)cccc1F` [149(c), 3-[8-(2,6-difluorophenyl)-2-(4-methyl-1-piperazinyl)-7-oxo-5,6,7,8-tetrahydropyrimido[4,5-d]pyrimidin-4-yl]-N,N,4-trimethylbenzamide], for which the melting point was 159 to 162 °C. Moreover, the “active in the assay (pIC50, p38α binding)” value (shortened to “active in the assay”) at Recombinant human p38α is listed as “active”. Also, the IC50 in series [1] was > 100 nM. On to `CCN(CC)C(=O)c1ccc(C)c(-c2nc(NCCN(C)C)nc3c2CNC(=O)N3c2c(F)cccc2F)c1` [156(c), 3-(8-(2,6-difluorophenyl)-2-{[2-(dimethylamino)ethyl]amino}-7-oxo-5,6,7,8-tetrahydropyrimido[4,5-d]pyrimidin-4-yl)-N,N-diethyl-4-methylbenzamide], for which the melting point fell in the range of 125 to 127 °C. Also, at Recombinant human p38α, the “active in the assay” value is on record as “active”. Moreover, in series [1], the IC50 is > 100 nM. In the case of `CNC(=O)c1ccc(C)c(-c2nc(S(C)(=O)=O)nc3c2CNC(=O)N3c2c(F)cccc2F)c1` [163(b), 3-[8-(2,6-difluorophenyl)-2-(methylsulfonyl)-7-oxo-5,6,7,8-tetrahydropyrimido[4,5-d]pyrimidin-4-yl]-N,4-dimethylbenzamide], the IC50 in the series on TNFalpha (setting [3]) is > 1000 nM. The “active in the assay” value on Recombinant human p38α is “active”.

In the case of `Cc1ccc(C(=O)Nc2ccc(C)c(-c3nc(N(C)C)nc4c3CNC(=O)N4c3c(F)cccc3F)c2)cc1F` [Example 28, N-{3-[8-(2,6-difluorophenyl)-2-(dimethylamino)-7-oxo-5,6,7,8-tetrahydropyrimido[4,5-d]pyrimidin-4-yl]-4-methylphenyl}-3-fluoro-4-methylbenzamide], the melting point is 257.8 to 264.3 °C. For the same molecule, the inhibition of neutrophilia result in series [2] is listed as “statistically nonsignificant inhibition of neutrophilia”. At Recombinant human p38α, the “active in the assay” value was “active”. With `Cc1ccc(C(=O)NC(C)C)cc1-c1nc(N2CCCCCC2)nc2c1CNC(=O)N2c1c(F)cccc1F` [Example 66, 3-[8-(2,6-difluorophenyl)-2-(hexahydro-1H-azepin-1-yl)-7-oxo-5,6,7,8-tetrahydropyrimido[4,5-d]pyrimidin-4-yl]-4-methyl-N-(1-methylethyl)benzamide], in the series with TNFalpha (setting [3]), the IC50 is > 1000 nM. For `Cc1ccc(C(=O)NC(C)C)cc1-c1nc(N2CCCC2)nc2c1CNC(=O)N2c1c(F)cccc1F` [Example 67, 3-[8-(2,6-difluorophenyl)-7-oxo-2-(1-pyrrolidinyl)-5,6,7,8-tetrahydropyrimido[4,5-d]pyrimidin-4-yl]-4-methyl-N-(1-methylethyl)benzamide], the IC50 in the series on TNFalpha (setting [3]) was > 1000 nM. Take `Cc1ccc(C(=O)NC(C)C)cc1-c1nc(N2CCOCC2)nc2c1CNC(=O)N2c1c(F)cccc1F` [Example 68, 3-[8-(2,6-difluorophenyl)-2-(4-morpholinyl)-7-oxo-5,6,7,8-tetrahydropyrimido[4,5-d]pyrimidin-4-yl]-4-methyl-N-(1-methylethyl)benzamide trifluoroacetate]: the IC50 in the series with TNFalpha (setting [3]) is > 1000 nM. As for `Cc1ccc(C(=O)NC(C)C)cc1-c1nc(N2CCC(n3c(=O)[nH]c4cc(Cl)ccc43)CC2)nc2c1CNC(=O)N2c1c(F)cccc1F` [Example 73, 3-[2-[4-(5-chloro-2-oxo-2,3-dihydro-1H-benzimidazol-1-yl)-1-piperidinyl]-8-(2,6-difluorophenyl)-7-oxo-5,6,7,8-tetrahydropyrimido[4,5-d]pyrimidin-4-yl]-4-methyl-N-(1-methylethyl)benzamide trifluoroacetate], the IC50 in the series on TNFalpha (setting [3]) is > 1000 nM. In the case of `Cc1c(F)cc(C(=O)NC(C)C)cc1-c1nc(NCCN(C)C)nc2c1CNC(=O)N2c1c(F)cccc1F` [Example 111(c), 3-(8-(2,6-difluorophenyl)-2-{[2-(dimethylamino)ethyl]amino}-7-oxo-5,6,7,8-tetrahydropyrimido[4,5-d]pyrimidin-4-yl)-5-fluoro-4-methyl-N-(1-methylethyl)benzamide], the IC50 in the series with TNFalpha (upper end printed as greater than 0.1 uM, read-out: IC50, range of data upon multiple runs) lay within 40 to 100 nM. On to `Cc1ccc(C(=O)NC[C@@H](C)O)cc1-c1nc(NCCN(C)C)nc2c1CNC(=O)N2c1c(F)cccc1F` [Example 128, 3-(8-(2,6-difluorophenyl)-2-{[2-(dimethylamino)ethyl]amino}-7-oxo-5,6,7,8-tetrahydropyrimido[4,5-d]pyrimidin-4-yl)-N-[(2R)-2-hydroxypropyl]-4-methylbenzamide], for which the IC50 in the series with TNFalpha (setting [3]) was > 1000 nM. On to `Cc1ccc(C(=O)NC[C@H](C)O)cc1-c1nc(NCCN(C)C)nc2c1CNC(=O)N2c1c(F)cccc1F` [Example 129, 3-(8-(2,6-difluorophenyl)-2-{[2-(dimethylamino)ethyl]amino}-7-oxo-5,6,7,8-tetrahydropyrimido[4,5-d]pyrimidin-4-yl)-N-[(2S)-2-hydroxypropyl]-4-methylbenzamide], for which the IC50 with TNFalpha (setting [3]) was > 1000 nM. Turning to `CCc1ccc(C(=O)O)cc1-c1nc(NCCN(C)C)nc2c1CNC(=O)N2c1c(F)cccc1F` [Example 141, 3-(8-(2,6-difluorophenyl)-2-{[2-(dimethylamino)ethyl]amino}-7-oxo-5,6,7,8-tetrahydropyrimido[4,5-d]pyrimidin-4-yl)-4-ethylbenzoic acid], the IC50 with TNFalpha (setting [3]) is > 1000 nM; on Recombinant human p38α (second end given as 'less than', read-out: pIC50, broad range of data upon multiple runs (converted)) it was ≥ 1260 nM. For the molecule `CCc1ccc(C(=O)Nc2ccc(F)c(F)c2)cc1-c1nc(NCCN(C)C)nc2c1CNC(=O)N2c1c(F)cccc1F` [Example 143, N-(3,4-difluorophenyl)-3-(8-(2,6-difluorophenyl)-2-{[2-(dimethylamino)-ethyl]amino}-7-oxo-5,6,7,8-tetrahydropyrimido[4,5-d]pyrimidin-4-yl)-4-ethylbenzamide trifluoroacetate], in the series on TNFalpha (setting [3]), the IC50 was > 1000 nM. As for `Cc1ccc(C(=O)N(C)C)cc1-c1nc(NCCN(C)C)nc2c1CNC(=O)N2c1c(F)cccc1F` [Example 152], the melting point fell in the range of 138 to 142 °C. Moreover, the IC50 in series [1] is > 100 nM. For the molecule `Cc1ccc(C(=O)N(C)C)cc1-c1nc(NCCNC(C)C)nc2c1CNC(=O)N2c1c(F)cccc1F` [Example 153, 3-[8-(2,6-difluorophenyl)-2-({2-[(1-methylethyl)amino]ethyl}amino)-7-oxo-5,6,7,8-tetrahydropyrimido[4,5-d]pyrimidin-4-yl]-N,N,4-trimethylbenzamide], the melting point lay in the range of 130 to 133 °C. Moreover, the IC50 at Recombinant human p38α (setting [4]) is > 15800 nM. Moreover, the IC50 in series [1] is > 100 nM. For the molecule `Cc1ccc(C(=O)N(C)C)cc1-c1nc(N(C)CCCN(C)C)nc2c1CNC(=O)N2c1c(F)cccc1F` [Example 154, 3-{8-(2,6-difluorophenyl)-2-[[3-(dimethylamino)propyl](methyl)amino]-7-oxo-5,6,7,8-tetrahydropyrimido[4,5-d]pyrimidin-4-yl}-N,N,4-trimethylbenzamide], the melting point is 114 to 118 °C. Also, the “active in the assay” value on Recombinant human p38α was “active”. The IC50 in series [1] is > 100 nM. Molecule `Cc1ccc(C(=O)N(C)C)cc1-c1nc(NC2CCN(C)CC2)nc2c1CNC(=O)N2c1c(F)cccc1F` [Example 155, 3-{8-(2,6-difluorophenyl)-2-[(1-methyl-4-piperidinyl)amino]-7-oxo-5,6,7,8-tetrahydropyrimido[4,5-d]-pyrimidin-4-yl}N,N,4-trimethylbenzamide] returned a melting point of 163 to 165 °C. For the same molecule, the “active in the assay” value at Recombinant human p38α was “active”. Also, the IC50 in series [1] was > 100 nM. For `CCN(CC)C(=O)c1ccc(C)c(-c2nc(NC3CCN(C)CC3)nc3c2CNC(=O)N3c2c(F)cccc2F)c1` [Example 159, 3-{8-(2,6-difluorophenyl)-2-[(1-methyl-4-piperidinyl)amino]-7-oxo-5,6,7,8-tetrahydropyrimido[4,5-dl-pyrimidin-4-yl}-N,N-diethyl-4-methylbenzamide], the melting point was 165 to 169 °C. For the same molecule, the IC50 in series [1] was > 100 nM. In turn, `CCN(CC)C(=O)c1ccc(C)c(-c2nc(NCCNC(C)C)nc3c2CNC(=O)N3c2c(F)cccc2F)c1` [Example 160, 3-[8-(2,6-difluorophenyl)-2-({2-[(1-methylethyl)amino]ethyl}amino)-7-oxo-5,6,7,8-tetrahydropyrimido[4,5-d]pyrimidin-4-yl]-N,N-diethyl-4-methylbenzamide] had a melting point of 89 to 91 °C. In addition, the IC50 on Recombinant human p38α (setting [4]) is > 15800 nM. The IC50 in series [1] is > 100 nM. For `CCN(CC)C(=O)c1ccc(C)c(-c2nc(N(C)CCCN(C)C)nc3c2CNC(=O)N3c2c(F)cccc2F)c1` [Example 161, 3-{8-(2,6-difluorophenyl)-2-[[3-(dimethylamino)propyl](methyl)amino]-7-oxo-5,6,7,8-tetrahydropyrimido[4,5-d]pyrimidin-4-yl}-N,N-diethyl-4-methylbenzamide], the melting point was 106 to 108 °C. Besides, the IC50 with TNFalpha (setting [3]) was > 1000 nM. Besides, at Recombinant human p38α, the “active in the assay” value is given as “active”. `Cc1ccc(C(=O)Nc2cccc(S(N)(=O)=O)c2)cc1-c1nc(NCCN(C)C)nc2c1CNC(=O)N2c1c(F)cccc1F` [Example 226, N-[3-(aminosulfonyl)phenyl]-3-(8-(2,6-difluorophenyl)-2-{[2-(dimethylamino)-ethyl]amino}-7-oxo-5,6,7,8-tetrahydropyrimido[4,5-d]pyrimidin-4-yl)-4-methylbenzamide]: the IC50 in the series on TNFalpha (setting [3]) was > 1000 nM.
